# PMC4414177, “A novel orally active water-soluble inhibitor of human glutathione transferase exerts a potent and selective antitumor activity against human melanoma xenografts” (Oncotarget, 2015)
# Experiments:
# A375 cells [1] = experiment: Cell cycle analysis (PI, flow cytometry); assay type: cell-based, human; settings: A375, 10 μM
# Method: (§1) A375 and SK23-MEL cells, were fixed with 70% ethanol overnight, stained with PI staining buffer ([…] and 1% Triton X-100) and analyzed by a FACSCalibur (BD Bioscence, San Jose, CA, USA). The percentage of early apoptotic, late apoptotic, and necrotic cells was determined by simultaneous staining of cells with PI (2 μg/ml) and Annexin V-FITC (0.5 μg/ml) (Sigma Aldrich), according to manufacturer's protocol. Flow cytometric data were analyzed by the FlowJo 8.8.6 software (Tree Stare, Inc, Ashland, OR, USA).
# SK23-MEL cells [2] = experiment: Cell cycle analysis (PI, flow cytometry); assay type: cell-based, human; settings: 7 μM
# Method: as §1
# A375 cells [3] = experiment: Annexin V / PI staining (flow cytometry); assay type: cell-based, human
# Method: as §1
# SK23-MEL cells [4] = experiment: Annexin V / PI staining (flow cytometry); assay type: cell-based, human; settings: 48 hrs of treatment
# Method: as §1
# A375 cells [5] = experiment: JNK phospho-activation (Western blot); assay type: cell-based, human; settings: A375, 10 μM
# Method: The cell pellet obtained at each time point was lysed as previously reported and the protein concentration was determined using the Lowry colorimetric assay. Proteins (40 μg) were loaded on 12% SDS-polyacrylamide gel and transferred onto a PVDF membrane (GE Healthcare, Chalfont St. Giles, UK). Anti-P-JNK (Thr183 Tyr185) (Cell Signaling, Beverly, MA, USA), anti-JNK (Cell Signaling) and anti-β actin were used as primary antibodies. […] The ImageJ software was used to analyze the band intensities.
# SK23-MEL cells [6] = experiment: Cell morphology (phase-contrast microscopy); assay type: cell-based, human; settings: 7 μM, 48 hrs
# A375 human melanoma = experiment: A375 fragment xenograft model, antitumor efficacy; assay type: in vivo, mice; settings: MC3181 i.v. 8mg/kg/d q1dx5 three weeks
# Method: With regard to the in vivo fragment tumor model, A375 cells were injected (1×10^7) subcutaneously (s.c.) into the right flank of an athymic Nude-Foxn1nu female mouse, and the established primary tumor was then removed and cut into fragments (2–3 mm diameter) and implanted s.c. into recipient mice. Animals were randomly divided in groups of 7 mice and treatment was initiated when a tumor volume of 0.12 ± 0.01 cm^3 (mean ± SEM) was reached.
# The reference drug temozolomide, dissolved in DMSO/PBS 1:1 to a final concentration of 10 mg/ml, was administered i.p. q1dx5 at a dose of 100mg/kg/day.
# Primary tumor growth was determined for all animals by caliper measurement (minor and major axis length), three times per week, until they were sacrificed. Primary tumor volume was determined using the following equation: V (cm^3)=(α^2×β)/2 (Eq. 3)
# The efficacy of the treatment was also analyzed by calculation of the percentage of Increase in Life Span (% ILS), since this analysis gives an evidence of clinical potency. Survival endpoint for each animal was fixed at the day when tumor volume reached 1.0 cm^3 (A375) or 0.4 cm^3 (SK23-MEL and G-361), and data were used to plot the relative Kaplan-Meier curves. Treatment efficacy was then evaluated by comparing the Median Survival Time (MST) of treated group with the MST of control group, and expressed as percentage of ILS: % ILS=[100×(MSTtreated group)/(MSTcontrol group)]−100 (Eq. 4)
# Treatment was considered effective when % ILS > 20%.
structure (smiles),measurement,setting,value
"O=[N+]([O-])c1ccc(SCCOCCOCCO)c2nonc12 [MC3181, 2-(2-(2-((7-nitrobenzo[c][1,2,5]oxadiazol-4-yl)thio)ethoxy)ethoxy)ethanol]",increase in the amount of cells in the sub-G1 phase,A375 cells [1]; 24 hrs,about 27%
same,increase in the amount of cells in the sub-G1 phase,A375 cells [1]; 48 hrs,~36%
same,increase in the number of cells in sub-G1 phase,SK23-MEL cells [2]; 24 hrs,about 10%
same,increase in the number of cells in sub-G1 phase,SK23-MEL cells [2]; 48 hrs,~20%
same,percentage of total apoptotic cells,"A375 cells [3]; A375, 24 hrs post-treatment",approximately 23%
same,percentage of total apoptotic cells,"A375 cells [3]; A375, 48 hrs post-treatment",~37%
same,percentage of total apoptotic cells,SK23-MEL cells [4],about 20%
same,JNK phosphorylation,A375 cells [5],sustained increase in JNK phosphorylation
same,start of the increase in JNK phosphorylation after addition of the drug,A375 cells [5],≤ 1 h
same,cell morphology,SK23-MEL cells [6],clear morphological changes
same,%ILS,A375 human melanoma; TMZ i.p. 100 mg/kg/d q1dx5,53%
same,tumor growth,"A375 human melanoma; TMZ i.p. 100 mg/kg/d q1dx5, from day 13 onward, P < 0.05",significantly delayed tumor growth
